# Columns and labels:
# [1] = C. Heidelberger et al. (1958); cited from earlier work
# [2] = system: Ehrlich ascites carcinoma; assay: Inhibition of Ehrlich solid tumor in mice, intraperitoneal administration (Table 1); assay type: in vivo, ddY mice
# Protocol: (§1) 1. Experiment on the inhibition of Ehrlich solid tumor
# Ehrlich ascites carcinoma was subcutaneously inoculated into the right inguinal region of ddY mice (5 weeks old, male, 8 mice per group) with 3×10^6 cells per mouse.
# 24 Hours after the inoculation, a test drug suspended or dissolved in 5% HCO 60 (a product manufactured by Nikkol) was administered intraperitoneally successively once daily for 7 days. To the control group, the same quantity as above of 5% HCO 60 was intraperitoneally administered in the same manner. Fourteen days after the inoculation, the tumor was excised and weighed, from which the average tumor weight ratio between the test group and the control group (T/C) was determined.
# [3] = Acute toxicity test (b), oral LD50 (Table 4); conditions: mouse, in vivo; oral, 3 weeks, Van der Waerden method
# Protocol: (b) The test compound was suspended in 0.25% CMC solution and administered orally to SLC-ddY mice (5 weeks old, male, 6 mice per group). The number of dead mice was counted over the subsequent 3 weeks. LD50 value was calculated according to the method of Van der Waerden.
# [4] = C. Heidelberger et al. (1958); cited from earlier work; remark: listed apart in the source
# [5] = system: Ehrlich ascites carcinoma; assay: Inhibition of Ehrlich solid tumor in mice, oral administration starting six days after inoculation (Table 2); assay type: in vivo, ddY mice
# Protocol: as §1
# Ehrlich ascites carcinoma was subcutaneously inoculated into the inguinal region of ddY mice (5 weeks old, male, 8 mice per group) with 3×10^6 cells per mouse. Six days after the inoculation, a test drug dissolved or suspended in 0.5% CMC solution was administered orally to the test group successively once daily for 10 days, while the same quantity as above of 0.5% CMC solution was orally administered to the control group. Twenty one days after the inoculation, the tumor was excised and weighed, from which the average tumor weight ratio between the test group and the control group (T/C) was determined.
# nucleotide-phosphorylase = conditions: G. D. Birnie (1963); cited from earlier work
# [6] = system: Sarcoma-180 ascites tumor; assay: Inhibition of Sarcoma-180 ascites tumor in mice, intravenous administration (Table 3); assay type: in vivo, ddY mice; conditions: 10 mg/kg i.v. once daily for 7 days
# Protocol: 2. Experiment on the inhibition of Sarcoma-180 ascites tumor
# Sarcoma-180 ascites tumor was subcutaneously inoculated into the right inguinal region of ddY mice (5 weeks old, male, 8 mice per group) with 3×10^6 cells per mouse. Twenty four hours after the inoculation,a test drug dissolved in 10% polyethylene glycol was administered intravenously to the test group successively once daily for 7 days, while the same quantity as above of 10% polyethylene glycol was intravenously administered to the control group. Ten days after the inoculation, the tumor was excised and weighed, from which the average tumor weight ratio between the test group and the control group (T/C) was determined.
# [7] = system: Ehrlich ascites carcinoma; assay: Carcinostatic test, oral, ED values (Table 5); assay type: in vivo, ddY mice; conditions: Mus musculus, 336 h, oral once daily for 10 days, least square method
# Protocol: Ehrlich ascites carcinoma was subcutaneously inoculated into the right inguinal region of ddY mice (5 weeks old, male, 8 mice per group) with 8×10^6 cells per mouse. Twenty four hours after the inoculation,5, 10, 20 or 40 mg/kg of a test drug suspended or dissolved in polyethylene glycol was administered orally to the test group successively once daily for 10 days, while the same quantity as above of 10% polyethylene glycol was administered orally to the control group. Fourteen days after the inoculation, the tumor was excised and weighed, from which the average tumor weight ratio between the test group and the control group (T/C) was calculated. ED value was determined by the least square method.
# [8] = cited from earlier work
# [9] = 40 mg/kg i.p. once daily for 7 days
# [10] = 60 mg/kg orally once daily for 10 days
compound,measurement,setting,value
"O=c1[nH]c(=O)n([C@H]2C[C@H](O)[C@@H](CO)O2)cc1F [FUDR, 5-fluoro-2'-deoxy-β-uridine, reference compound]",toxicity,[1],low toxicity
same,Body weight change,[2]; [9],+6.5 g
same,No. of surviving mice/No. of total mice used,[2]; [9],8/8
same,response vs control in vivo at 40 mg/kg,"[2]; Mus musculus, Ehrlich, ip, 336 h, read-out: T/C (average tumor weight ratio between test group and control group)",47.1%
same,LD50 at 504 h,[3],1330 mg/kg
same,carcinostatic activity in vitro,[4],intense carcinostatic activity in vitro
same,Body weight change,[5]; [10],-2.7 g
same,No. of surviving mice/No. of total mice used,[5]; [10],8/8
same,T/C (average tumor weight ratio between test group and control group),"[5]; 60 mg/kg orally once daily for 10 days from day 6, Ehrlich, day 21",48.6%
same,decomposition by nucleotide-phosphorylase to yield 5-fluorouracil,nucleotide-phosphorylase,readily decomposed by nucleotide-phosphorylase
same,Body weight change,[6],+3.9 g
same,No. of surviving mice/No. of total mice used,[6],8/8
same,T/C (average tumor weight ratio between test group and control group),"[6]; Sarcoma-180, day 10",56.3%
same,ED30,[7]; read-out: ED30,19 mg/kg
same,ED40,[7]; read-out: ED40,24 mg/kg
same,persistency in vivo,[8],lacks persistency
same,excretion,[8]; in vivo,excreted rapidly

# — patent publication US4472386A, “5-Fluoro-(β-uridine or 2'-deoxy-β-uridine) derivatives, a process for producing the same and a carcinostatic agent containing the same” (Toyama Chemical Co., Ltd., priority 1978, dated 1984)
